The text below walks through data of ChEMBL document CHEMBL1201862, “PubChem BioAssay data set” (2004).

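Test compounds were applied to cells in 96-well plates for 48 hours at 5 doses. The concentration for 50% growth inhibition is given as GI50.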 The source made the active and inactive calls. Cut-off read from the data, not from the text of the source: active = GI50 up to about 1.1 µM and inactive = higher.

Some test systems named below: A498; BT-549; CCRF-CEM; DLD-1; EKVX; HOP-62; Hs-578T; IGROV-1; LOX IMVI; MCF7; MDA-MB-231; MDA-N; NCI-H23; NCI/ADR-RES; OVCAR-5; RXF 393; SR; T47D; U-251; UACC-257.
What all share (test): NCI-60 cell line screen, 48 h

Consider `C#CCN1CCN(C(=S)N/N=C(\C)c2ccccn2)CC1`, for which the GI50 in the assay with A498 is 2.15 µM (inactive); in the assay on BT-549, 1.49 µM (inactive); in the assay on CCRF-CEM, 10 nM (active); in the assay on DLD-1, 10 nM (active); with EKVX it was 79.2 nM (active); with HOP-62, 363 nM (active). The GI50 was 1.74 µM (inactive) in the assay with Hs-578T; 10 nM (active) in the assay with IGROV-1; 10 nM (active) with LOX IMVI; 10 nM (active) in the assay with MCF7; 1.28 µM (inactive) with MDA-MB-231; 1.46 µM (inactive) in the assay with MDA-N. The GI50 with NCI-H23 is 10 nM (active); in the assay on NCI/ADR-RES, 10 nM (active); in the assay on OVCAR-5, 69 nM (active); with RXF 393, 465 nM (active); in the assay with SR, 11 nM (active); with T47D, 1.6 nM (active). In addition, the GI50 is 18.9 nM (active) with U-251 and < 14 nM (active) in the assay on UACC-257.
